Consider ten compounds from patent publication US8367838B2, “Amines or amino alcohols as GLYT1 inhibitors” (Hoffmann-La Roche Inc., priority 2009, dated 2013).

Where a name gives a salt, the structure may show the parent alone.

In this test the target is T1, mGlyT-1b (Mus musculus, UniProt P28571).
T1 construct: host or cells: Flp-in-CHO
T1 sequence (P28571 1-651 isoform P28571-2): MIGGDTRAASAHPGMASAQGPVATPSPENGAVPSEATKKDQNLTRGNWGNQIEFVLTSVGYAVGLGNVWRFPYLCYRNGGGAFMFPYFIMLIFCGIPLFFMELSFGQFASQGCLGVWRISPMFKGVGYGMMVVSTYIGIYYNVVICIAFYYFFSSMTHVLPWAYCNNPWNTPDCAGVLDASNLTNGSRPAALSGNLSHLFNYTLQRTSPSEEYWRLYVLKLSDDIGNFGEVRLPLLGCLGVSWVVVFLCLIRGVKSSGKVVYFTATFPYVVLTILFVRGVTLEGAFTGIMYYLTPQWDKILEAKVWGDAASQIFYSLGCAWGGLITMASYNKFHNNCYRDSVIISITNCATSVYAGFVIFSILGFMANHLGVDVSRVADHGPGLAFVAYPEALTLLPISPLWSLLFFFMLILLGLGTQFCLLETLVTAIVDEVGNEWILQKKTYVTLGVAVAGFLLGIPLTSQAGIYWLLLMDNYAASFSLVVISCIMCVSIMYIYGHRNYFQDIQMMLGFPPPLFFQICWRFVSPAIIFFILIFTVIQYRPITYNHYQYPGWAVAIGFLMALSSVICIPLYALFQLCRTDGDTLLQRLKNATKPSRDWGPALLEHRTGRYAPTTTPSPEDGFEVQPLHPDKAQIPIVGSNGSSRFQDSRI
Nature of the test: Glycine uptake inhibition assay (mGlyT-1b), [3H]-glycine uptake in transfected Flp-in-CHO cells. The settings on record: Flp-in-CHO cells transfected with mGlyT-1b cDNA; [3H]-glycine 60 nM and 25 μM non-radioactive glycine; 20 min preincubation at 22° C.; read-out: IC50 (μM) at GlyT-1; Ic50 (hglyt1b). Format: cell-based. In outline: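 Flp-in CHO cells stably expressing mouse GlyT-1b were preincubated 20 min at 22 °C with inhibitor in pH 7.4 Hepes-Tris buffer. Uptake was then run with 60 nM [3H]-glycine plus 25 μM unlabeled glycine, with 10 mM glycine defining nonspecific uptake. Cell radioactivity was counted by scintillation to derive IC50.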
`C[Si](C)(C)c1ccc([C@@H](O)[C@@H](N)c2ccc(Cl)c(Cl)c2)cc1` (racemic) [Example 35, rac-erythro-[2-Amino-2-(3,4-dichloro-phenyl)-1-(4-trimethylsilanyl-phenyl)-ethanol trifluoroacetate]: the IC50 came out at 0.298 µM.
For `N[C@@H](c1ccc(Cl)c(Cl)c1)[C@H](O)c1ccc(-c2cncc(F)c2)cc1` (racemic) [Example 83, rac-erythro-2-Amino-2-(3,4-dichloro-phenyl)-1-[4-(5-fluoro-pyridin-3-yl)-phenyl]-ethanol] the value was 0.059 µM; for `CS(=O)(=O)c1cncc(-c2ccc([C@@H](O)[C@@H](N)c3ccc(Cl)c(Cl)c3)cc2)c1` (racemic) [Example 82, rac-erythro-2-Amino-2-(3,4-dichloro-phenyl)-1-[4-(5-methanesulfonyl-pyridin-3-yl)-phenyl]-ethanol], 0.047 µM; for `Cc1ccc([C@H](N)[C@H](O)c2ccc(OC3CCOCC3)cc2)cc1Cl` (racemic) [Example 54, rac-erythro-[2-Amino-2-(3-chloro-4-methyl-phenyl)-1-[4-(tetrahydro-pyran-4-yloxy)-phenyl]-ethanol], 0.104 µM.
For `N[C@@H](c1ccc(Cl)cc1)[C@H](O)c1ccc(-c2cccc(Cl)c2)cc1` (racemic) [Example 74, rac-erythro-2-Amino-1-(3′-chloro-biphenyl-4-yl)-2-(4-chloro-phenyl)-ethanol] the value was 0.544 µM; for `Cc1nc(OC2CCOC2)ccc1[C@@H](O)[C@@H](N)c1ccc(Cl)c(Cl)c1` (mixture of isomers) [Example 15, rac-erythro-[rac-2-Amino-2-(3,4-dichloro-phenyl)-1-[2-methyl-6-(tetrahydro-furan-3-yloxy)-pyridin-3-yl]-ethanoldihydrochloride], 0.021 µM.
Take `CC(C)Oc1ccc([C@@H](O)[C@@H](N)c2ccc(Cl)cc2)cc1` (racemic) [Example 10, rac-erythro-[2-Amino-2-(4-chloro-phenyl)-1-(4-isopropoxy-phenyl)-ethanol hydrochloride]: the IC50 was found to be 0.188 µM.
For `N[C@@H](c1ccc(Cl)c(Cl)c1)[C@H](O)c1ccc(OC2CCOCC2)nc1` (racemic) [Example 22, rac-erythro-[2-Amino-2-(3,4-dichloro-phenyl)-1-[6-(tetrahydro-pyran-4-yloxy)-pyridin-3-yl]-ethanoldihydrochloride] the value was 0.131 µM.
For `N[C@@H](c1ccc(Cl)c(Cl)c1)[C@H](O)c1ccc(OC(F)(F)C(F)F)cc1` (racemic) [Example 38, rac-erythro-[2-Amino-2-(3,4-dichlorophenyl)-1-[4-(1,1,2,2-tetrafluoro-ethoxy)-phenyl]-ethanol] the value was 0.176 µM; for `Cc1nc(OC2CCOCC2)ccc1[C@@H](O)[C@@H](N)c1ccc(Cl)c(Cl)c1` (racemic) [Example 17, rac-erythro-[2-Amino-2-(3,4-dichloro-phenyl)-1-[2-methyl-6-(tetrahydro-pyran-4-yloxy)-pyridin-3-yl]-ethanoldihydrochloride], 0.043 µM.
